From ChEMBL document CHEMBL5113511, “Discovery of Small-Molecule Degraders of the CDK9-Cyclin T1 Complex for Targeting Transcriptional Addiction in Prostate Cancer” (J Med Chem, 2022)
Activity calls are given as the source filed them. The rule behind the calls is not given here.

Legend:
[1] = test system: CWR22R; test: Downregulation of CDK4 level in human 22Rv1 cells at 3 uM measured after 12 hrs by DIA-based proteomics analysis; assay type: functional, cell-based
[2] = biological target: Cyclin-dependent kinase 9 (Homo sapiens, UniProt P50750); test: Induction of Flag-tagged CDK9 (unknown origin) polyubiquitination expressed in HEK293T cells co-transfected with HA-tagged Cyclin T1 and Myc ubiquitin assessed as increase in K48-linkage poly-ubiqutinated CDK9 level at 1 to 2 uM incubated for 20 hrs by immunoprecipitation analysis; assay type: cell-based; settings: dose 1-2 µM
[3] = test system: CWR22R; test: Downregulation of CDK1 level in human 22Rv1 cells at 3 uM measured after 12 hrs by DIA-based proteomics analysis; assay type: functional, cell-based
[4] = test system: CWR22R; test: Antiproliferative activity against human 22Rv1 cells assessed as reduction in cell viability measured after 5 days by CellTiter-Glo assay; assay type: functional, cell-based; settings: 22Rv1, 120 h
[5] = biological target: T1, CDK9/cyclin T1 (Homo sapiens) (UniProt O60563+P50750); test: Induction of CDK9/Cyclin T1 degradation in human 22Rv1 cells assessed as decrease in cyclin D1 protein expression at 3 uM measured for 36 hrs by DIA-based proteomics analysis; assay type: cell-based
[6] = test system: CWR22R; test: Induction of cell cycle arrest in human 22Rv1 cells assessed as accumulation of cells at sub-G1 phase at 0.3 to 1 uM incubated for 24 hrs by propidium iodide staining based flow cytometry; assay type: functional; settings: dose 0.3-1 µM
[7] = biological target: T1, CDK9/cyclin T1 (Homo sapiens); test: Induction of CDK9/Cyclin T1 degradation in human 22Rv1 cells assessed as downregulation of NOTCH1 gene expression at 2 uM incubated for 24 hrs by RNA-Seq based analysis; assay type: cell-based

Cyclin-dependent kinase 9, sequence (P50750 whole entry): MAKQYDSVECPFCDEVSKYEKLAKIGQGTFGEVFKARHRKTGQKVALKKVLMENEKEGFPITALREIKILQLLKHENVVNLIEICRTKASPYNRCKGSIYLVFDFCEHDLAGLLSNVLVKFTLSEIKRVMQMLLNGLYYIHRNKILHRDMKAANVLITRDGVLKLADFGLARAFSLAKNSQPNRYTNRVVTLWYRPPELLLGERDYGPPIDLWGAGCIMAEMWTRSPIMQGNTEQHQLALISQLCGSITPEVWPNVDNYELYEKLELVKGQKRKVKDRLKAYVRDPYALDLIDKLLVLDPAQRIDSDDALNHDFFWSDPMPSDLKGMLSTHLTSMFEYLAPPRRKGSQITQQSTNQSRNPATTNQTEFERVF

Activity [2]: Active
Activity [5]: Active
Activity [7]: Active
SMILES: CC(C)[C@@H]1CC[C@@H](C)C[C@H]1OCC(=O)NCCS(=O)(=O)N1CCC(C(=O)Nc2ncc(SCc3ncc(C(C)(C)C)o3)s2)CC1
inhibition [1]: Active
inhibition [3]: Active
IC50 [4]: 0.095 µM
Activity [6]: Active
